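Following 48 hours of exposure in 96-well plates, responses at five concentrations were used to interpolate endpoints linearly. GI50 marks 50% less growth. TGI: concentration producing complete growth inhibition.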
Experiments:
Test in all cases: NCI-60 cell line screen, 48 h
ACHN renal = test system: ACHN renal
OVCAR-5 ovarian = test system: OVCAR-5 ovarian
SF-539 CNS = test system: SF-539 CNS
SR leukemia = test system: SR leukemia
SW-620 colon = test system: SW-620 colon
UACC-257 melanoma = test system: UACC-257 melanoma
UACC-62 melanoma = test system: UACC-62 melanoma
MALME-3M melanoma = test system: MALME-3M melanoma
SK-MEL-28 melanoma = test system: SK-MEL-28 melanoma
SK-OV-3 ovarian = test system: SK-OV-3 ovarian

| SMILES | GI50 (ACHN renal) [µM] | TGI (ACHN renal) [µM] | GI50 (OVCAR-5 ovarian) [µM] | TGI (OVCAR-5 ovarian) [µM] | GI50 (SF-539 CNS) [µM] | TGI (SF-539 CNS) [µM] | GI50 (SR leukemia) [µM] | TGI (SR leukemia) [µM] | GI50 (SW-620 colon) [µM] | TGI (SW-620 colon) [µM] | GI50 (UACC-257 melanoma) [µM] | TGI (UACC-257 melanoma) [µM] | GI50 (UACC-62 melanoma) [µM] | TGI (UACC-62 melanoma) [µM] | TGI (MALME-3M melanoma) [µM] | TGI (SK-MEL-28 melanoma) [µM] | TGI (SK-OV-3 ovarian) [µM] | GI50 (MALME-3M melanoma) [µM] | GI50 (SK-MEL-28 melanoma) [µM] | GI50 (SK-OV-3 ovarian) [µM] |
| --- | --- | --- | --- | --- | --- | --- | --- | --- | --- | --- | --- | --- | --- | --- | --- | --- | --- | --- | --- | --- |
| NC(N)=N/N=C/c1c(-c2cc(Cl)sc2Cl)nc2n1CCS2 | 8.31 | 15.1 | 7.87 | 14.7 | 7.43 | 15.2 | 8.04 | 20.7 | 10.5 | 20.5 | 9 | 20.4 | 8.62 | 16 | – | – | – | – | – | – |
| O=C(O)c1[nH]c(C(=O)O)c(CC(F)(F)C(F)(F)C(F)(F)F)c1CC(F)(F)C(F)(F)C(F)(F)F | – | > 100 | – | > 100 | – | > 100 | – | – | – | > 100 | – | > 100 | – | > 100 | > 100 | > 100 | > 100 | – | – | – |
| C=CCN(N=O)C(=O)N(CCC)CCCC(NC(C)=O)C(=O)NCc1ccccc1 (stereo not given) | – | > 100 | – | > 100 | – | > 100 | – | – | – | > 100 | – | > 100 | – | > 100 | > 100 | > 100 | > 100 | – | – | – |
| C=C1C(=O)O[C@H]2[C@H]1CC/C(COC(=O)c1ccc(C(=O)O)s1)=C\CC[C@@]1(C)O[C@@H]21 | 1.63 | 3.02 | 3.05 | 10.1 | 1.62 | 3.04 | – | – | 1.61 | 3.79 | 2.18 | 5.47 | 1.65 | 3.23 | 4.25 | 4.83 | 25.1 | 2.44 | 2.1 | 12.3 |
| CC(C)(C)N=CN1CCC(C(c2ccccc2)c2ccccc2)CC1 | – | > 100 | – | > 100 | – | > 100 | – | – | – | > 100 | – | > 100 | – | > 100 | 35.6 | > 100 | – | – | – | – |
| CCOC(=O)/C=C(/CN1C(=O)c2ccccc2C1=O)c1ccccc1 | – | > 100 | – | > 100 | – | > 100 | – | – | – | > 100 | – | > 100 | – | > 100 | > 100 | > 100 | > 100 | – | – | – |
| CN(C)CN1C(=O)S/C(=C2\C(=O)N(CN(C)C)c3ccccc32)C1=O | – | > 100 | – | > 100 | – | > 100 | – | 45.3 | – | 93.1 | – | > 100 | – | > 100 | – | > 100 | > 100 | – | – | – |
| CCc1cccc(C)c1NC(=O)CC1Sc2ccccc2NC1=O (stereo not given) | – | > 100 | – | > 100 | – | > 100 | – | – | – | > 100 | – | 57.7 | – | > 100 | > 100 | > 100 | > 100 | – | – | – |
| OCC1OC(N2C=C(c3nc4ccccc4s3)C3C=CC=CC32)C(O)C1O (stereo not given) | 4.36 | 12.4 | 11.3 | 32.7 | 8.08 | 17.8 | 2.34 | > 50 | 9.82 | > 50 | 9.17 | 22.1 | 8.92 | 19 | – | 27.8 | > 50 | – | 10.8 | 28.2 |
| CCCCCCCCCCCC(=O)C1=C(O)C(O)CCC1=O (stereo not given) | – | 56.9 | – | 80.2 | – | 45.4 | – | – | – | 60 | – | 37.2 | – | 25.5 | 32 | 38.6 | 67.2 | – | – | – |
| CC/C=C\C[C@H](O)C/C=C1/C(=O)C=C[C@@H]1C/C=C\CCCC(N)=O | 1.64 | 3.35 | 3.89 | 11.8 | – | – | – | – | 1.58 | 5.33 | 1.97 | 5.3 | 1.36 | 3.36 | 5.23 | 4.26 | 12.8 | 2.06 | 1.93 | 3.96 |
| CCCN(CCCCC(NC(C)=O)C(=O)NCc1ccccc1)C(=O)NC (stereo not given) | – | > 100 | – | > 100 | – | > 100 | – | – | – | > 100 | – | > 100 | – | > 100 | > 100 | > 100 | > 100 | – | – | – |
| CC1(C)OC2C(=O)OC(COCc3ccccc3)C2O1 (stereo not given) | – | > 100 | – | > 100 | – | > 100 | – | > 100 | – | > 100 | – | > 100 | – | > 100 | > 100 | > 100 | – | – | – | – |
| Cc1c2ncccc2c(C)c2c1[nH]c1ccccc12 | – | 26.5 | – | 27.1 | – | 26 | – | – | – | 28 | – | 32 | – | 29.2 | 30.6 | 28.9 | 31.3 | – | – | – |
| O=C(N/N=C/c1ccc(F)cc1)c1[nH]c2ccc(I)cc2c1-c1ccccc1 | 0.719 | > 100 | 3.49 | > 100 | 0.338 | 1.34 | 0.297 | 3.37 | 0.4 | > 100 | 3.73 | > 96.6 | 0.324 | > 100 | – | 55.4 | 10.7 | – | 0.494 | 0.464 |
| O=C1c2cccc3cc([N+](=O)[O-])cc(c23)C(=O)N1CCCN1CCN(CCCN2C(=O)c3cccc4cc([N+](=O)[O-])cc(c34)C2=O)CC1 | – | 4.28 | – | > 100 | – | 12 | – | – | – | > 100 | – | 8.97 | – | 1.65 | 25.3 | – | 46.8 | – | – | – |
| CN(C)CCNC(=O)c1cc([N+](=O)[O-])cc2ccc(-c3ccccc3)nc12 | – | 28.5 | – | 27.6 | – | 27.2 | – | – | – | > 38.7 | – | 20.8 | – | 15.7 | 19.5 | 27.4 | 25.5 | – | – | – |
| Cn1cc(NC(=O)c2cc(NC(=O)CCCCCC(=O)Nc3cc(C(=O)Nc4cc(C(=O)NCCC(=N)N)n(C)c4)n(C)c3)cn2C)cc1C(=O)NCCC(=N)N | – | > 100 | – | > 100 | – | > 100 | – | – | – | > 100 | – | > 100 | – | > 100 | > 100 | > 100 | > 100 | – | – | – |
| NC(=O)c1ccccc1NC(=O)C(=O)C(c1cnc2ccc([N+](=O)[O-])cc2n1)[N+](=O)[O-] (stereo not given) | – | > 100 | – | > 100 | – | > 100 | – | – | – | > 100 | – | > 100 | – | > 100 | > 100 | > 100 | > 100 | – | – | – |
| COc1cc2ccc3c4cc(OC)c(OCc5ccccc5)cc4cnc3c2cc1OC | – | > 100 | – | > 100 | – | – | – | – | – | > 100 | – | > 100 | – | > 100 | > 100 | > 100 | > 100 | – | – | – |
| COc1cccc2c1C1=CC(=O)CCC1C(C)(C)O2 (stereo not given) | – | > 100 | – | > 100 | – | > 100 | – | – | – | 27.3 | – | > 100 | – | > 100 | > 100 | > 100 | > 100 | – | – | – |
